# Test results as given in article PMC12136991 (ACS chemical neuroscience, 2025).
# Entries after “also recorded” stand apart in the source; their conditions may differ.
# Tests used:
# [1] = molecular target: T1, mouse mu opioid receptor (mMOR-CHO) (Mus musculus, UniProt P42866); test: [35S]GTPγS functional assay, mMOR-CHO membranes; format: biochemical
# Kinetic solubility assay = format: physicochemical; conditions: kinetic from dmso stock
# [2] = Multi-point microsome stability assay, human; format: in vitro ADME; conditions: both, human microsomal fractions, pH 7.4
# [3] = Multi-point microsome stability assay, mouse; format: in vitro ADME; conditions: male, CD-1, mouse, mouse microsomal fractions, pH 7.4
# [4] = Multi-point microsome stability assay, rat; format: in vitro ADME; conditions: male, Sprague Dawley, rat microsomal fractions, pH 7.4
# [5] = Multi-point cytosol stability assay, human; format: in vitro ADME; conditions: human cytosol fractions, pH 7.4
# [6] = Multi-point cytosol stability assay, mouse; format: in vitro ADME; conditions: mouse cytosol fractions, pH 7.4
# [7] = Multi-point cytosol stability assay, rat; format: in vitro ADME; conditions: rat cytosol fractions, pH 7.4
# mice [8] = conditions: administered before IP 0.56% lactic acid; previously published; cited from earlier work
# [9] = molecular target: T2, human δ-opioid receptor (OPRD1) (Homo sapiens, UniProt P41143); test: Forskolin-induced cAMP accumulation assay, DOR antagonist mode; conditions: for DOR Antagonist %Imax ± SEM: versus EC50 of SNC80, normalized to naltrexone
# [10] = molecular target: T3, human κ-opioid receptor (OPRK1) (Homo sapiens, UniProt P41145); test: Forskolin-induced cAMP accumulation assay, KOR antagonist mode
# [11] = molecular target: human μ-opioid receptor (OPRM1) (Homo sapiens, UniProt P35372); test: cell-based
# [12] = molecular target: T1, mouse mu opioid receptor (mMOR-CHO); test: Competition radioligand binding assay, [3H]naloxone, mMOR-CHO membranes
# KOR (mKOR-CHO) [13] = molecular target: T4, KOR (mKOR-CHO) (Mus musculus, UniProt P33534); test: Competition radioligand binding assay, mKOR-CHO membranes
# KOR (mKOR-CHO) [14] = molecular target: T4, KOR (mKOR-CHO); test: [35S]GTPγS functional assay, mKOR-CHO membranes; format: biochemical; conditions: KOR-mediated [35S]GTPγS binding, up to 30 μM
# DOR (hDOR-CHO) [15] = molecular target: T5, DOR (hDOR-CHO) (Homo sapiens, UniProt P41143); test: Competition radioligand binding assay, hDOR-CHO membranes; conditions: DOR Receptor binding Ki, CHO cell membranes expressing cloned DOR
# DOR (hDOR-CHO) [16] = molecular target: T5, DOR (hDOR-CHO); test: [35S]GTPγS functional assay, hDOR-CHO membranes; format: biochemical
# mice [17] = test: Assay of pain-depressed locomotion in mice; format: in vivo, mouse
# [18] = molecular target: T2, human δ-opioid receptor (OPRD1); test: Forskolin-induced cAMP accumulation assay, DOR agonist mode
# [19] = molecular target: T3, human κ-opioid receptor (OPRK1); test: Forskolin-induced cAMP accumulation assay, KOR agonist mode
# [20] = SC 30 min before 15 min session, significant increase, 12 mice per dose
smiles,measurement,setting,value
"C=C[C@H]1[C@H]2CCC[C@]1(c1cccc(O)c1)CCN2CCc1ccccc1 [DC-1–76.2, 3-((1R,5S,9R)-2-phenethyl-9-vinyl-2-azabicyclo[3.3.1]nonan-5-yl)phenol, reference compound]",GTPγS % Emax of (DAMGO),"[1]; MOR, % of maximal DAMGO stimulation",29.09 ± 0.78%
same,solubility kinetic,Kinetic solubility assay,34 µg/mL
same,half-life at 1 μM,[2],12 min
same,half-life at 1 μM,[3],4.7 min
same,half-life at 1 μM,[4],6.9 min
same,half-life at 1 μM,[5],80.7 min
same,half-life at 1 μM,[6],71.9 min
same,half-life at 1 μM,[7],> 120 min
same,effect on IP acid-induced depression of Crosses and Movement,mice [8],failed to alleviate IP acid-induced depression of Crosses but did alleviate IP acid-induced depression of Movement
same,DOR Antagonist %Imax ± SEM,[9],119.1 ± 15.5%
same,KOR Antagonist %Imax ± SEM,"[10]; versus EC90 of U50488H, normalized to nor-BNI",97.1 ± 9.2%
"C=C[C@H]1[C@H]2CCC[C@]1(c1cccc(C(N)=O)c1)CCN2CCc1ccccc1 [compound 5, 3-((1R,5S,9R)-2-Phenethyl-9-vinyl-2-azabicyclo[3.3.1]nonan-5-yl)benzamide]",EC50,[11],5.28 nM
same,Emax,"[11]; OPRM1, read-out: MOR Agonist %Emax ± SEM",75.1%
same,Ki,[12],1.24 ± 0.17 nM
same,EC50,[1],23.3 ± 6.45 nM
same,Emax,"[1]; read-out: GTPγS % Emax of (DAMGO), MOR, % of maximal DAMGO stimulation",15.4 ± 1.8%
same,Ki,KOR (mKOR-CHO) [13],48.7 ± 7.06 nM
same,KOR GTPγS % Emax of (DAMGO),KOR (mKOR-CHO) [14],did not stimulate; also recorded: No Stim
same,Ki,DOR (hDOR-CHO) [15],237 nM
same,EC50,DOR (hDOR-CHO) [16],1460 ± 594 nM
same,Emax,DOR (hDOR-CHO) [16]; read-out: DOR GTPγS % Emax of (DAMGO),-6.98 ± 1.21%
same,solubility kinetic,Kinetic solubility assay,5.1 µg/mL
same,half-life at 1 μM,[2],40.4 min
same,half-life at 1 μM,[3],16.7 min
same,half-life at 1 μM,[4],3.2 min
same,half-life at 1 μM,[5],> 120 min
same,half-life at 1 μM,[6],> 120 min
same,half-life at 1 μM,[7],> 120 min
same,"Crosses, drug administered alone: dose different from Vehicle",mice [17]; [20],18 mg/kg
same,"Movement, drug administered alone: doses different from Vehicle",mice [17]; [20],10 to 18 mg/kg
same,antinociceptive attenuation of IP acid-induced depression of Crosses: dose different from Vehicle+IP acid,mice [17]; SC pretreatment to IP 0.56% lactic acid,18 mg/kg
same,EC50,[18],6.01 ± 4.97 nM
same,Emax,[18]; read-out: DOR Agonist %Emax ± SEM,25.2%
same,EC50,[19],> 10000 nM
same,IC50,[9],498 ± 208 nM
same,DOR Antagonist %Imax ± SEM,[9],117.6 ± 8.0%
same,IC50,[10],> 10000 nM
